# Key:
# [1] = test system: PDAC1 adherent 2D monolayers; assay: Viability curves on PDAC1 adherent 2D monolayers; format: cell-based; conditions: Homo sapiens, 30 h
# Text: The PDAC patient-derived xenograft (PDX) Panc354 (referred to hereafter as PDAC3) was obtained from Dr. Manuel Hidalgo under a Material Transfer Agreement with the Spanish National Cancer Centre (CNIO), Madrid, Spain (Reference no. I409181220BSMH). PDAC1, PDAC2 and PDAC4 PDXs were established from primary patient resected tumors. Samples were provided by the BioBank Hospital Ramón y Cajal-IRYCIS (PT13/0010/0002), integrated in the Spanish National Biobanks Network and they were processed following standard operating procedures with the appropriate approval of the Ethical and Scientific Committees (Control no. No. Control: DE-BIOB-73 AC65, RG.BIOB-96 REV, and CI-BIOB-08-10-01 rev), with informed consent and according to Declaration of Helsinki principles. Primary patient tumors were subcutaneously implanted in immunocompromised female 6- to 8-week-old NU-Foxn1nu nude mice (Envigo, Barcelona, Spain) and subsequently passage in vivo to establish PDX PDAC1, PDAC2 and PDAC4. Primary PDX-derived in vitro cultures were established as previously detailed. […]
# Murine embryonic stem cells (mESCs) were plated at 20,000 cells per well in gelatinized 96 well plates. […] Trypsinized cells were counted and 20,000 cells were plated in wells of standard tissue culture-treated plates (Corning) and treated the following day with indicated compounds and concentrations.
# [2] = target: T1, WEE2 (Homo sapiens, UniProt P0C1S8); assay: KINOMEscan; format: binding; conditions: read-out: % Ctrl
# T1 construct: purchased DiscoveRx KINOMEscan
# [3] = target: T2, ALK (Homo sapiens, UniProt Q9UM73); assay: KINOMEscan; format: binding; conditions: read-out: % Ctrl
# T2 construct: purchased DiscoveRx KINOMEscan
# [4] = target: T3, ACVRL1 (Homo sapiens, UniProt P37023); assay: KINOMEscan; format: binding; conditions: read-out: % Ctrl
# T3 construct: purchased DiscoveRx KINOMEscan
# [5] = target: T4, FLT3(R834Q) (Homo sapiens, UniProt P36888, R834Q); assay: KINOMEscan; format: binding; conditions: read-out: % Ctrl
# T4 construct: purchased DiscoveRx KINOMEscan
# [6] = target: T5, PHKG2 (Homo sapiens, UniProt P15735); assay: KINOMEscan; format: binding; conditions: read-out: % Ctrl
# T5 construct: purchased DiscoveRx KINOMEscan
# [7] = target: T6, CSK (Homo sapiens, UniProt P41240); assay: KINOMEscan; format: binding; conditions: read-out: % Ctrl
# T6 construct: purchased DiscoveRx KINOMEscan
# [8] = target: T7, EGFR(L747-S752del, P753S) (Homo sapiens, UniProt P00533, DEL747-752/P753S); assay: KINOMEscan; format: binding; conditions: read-out: % Ctrl
# T7 construct: purchased DiscoveRx KINOMEscan
# [9] = target: T8, ABL1(F317I)-nonP (Homo sapiens, UniProt P00519, F317I); assay: KINOMEscan; format: binding; conditions: read-out: % Ctrl
# T8 construct: purchased DiscoveRx KINOMEscan
# [10] = target: T9, FER (Homo sapiens, UniProt P16591); assay: KINOMEscan; format: binding; conditions: read-out: % Ctrl
# T9 construct: purchased DiscoveRx KINOMEscan
# [11] = target: T10, TLK1 (Homo sapiens, UniProt Q9UKI8); assay: KINOMEscan; format: binding; conditions: read-out: % Ctrl
# T10 construct: purchased DiscoveRx KINOMEscan
# [12] = target: T11, BMPR1B (Homo sapiens, UniProt O00238); assay: KINOMEscan; format: binding; conditions: read-out: % Ctrl
# T11 construct: purchased DiscoveRx KINOMEscan
# [13] = target: T12, WNK2 (Homo sapiens, UniProt Q9Y3S1); assay: KINOMEscan; format: binding; conditions: read-out: % Ctrl
# T12 construct: purchased DiscoveRx KINOMEscan
# [14] = target: T13, TSSK1B (Homo sapiens, UniProt Q9BXA7); assay: KINOMEscan; format: binding; conditions: read-out: % Ctrl
# T13 construct: purchased DiscoveRx KINOMEscan
# [15] = target: T14, PIK4CB (Homo sapiens, UniProt Q9UBF8); assay: KINOMEscan; format: binding; conditions: read-out: % Ctrl
# T14 construct: purchased DiscoveRx KINOMEscan
# [16] = target: T15, FLT4 (Homo sapiens, UniProt P35916); assay: KINOMEscan; format: binding; conditions: read-out: % Ctrl
# T15 construct: purchased DiscoveRx KINOMEscan
# [17] = target: T16, KIT(A829P) (Homo sapiens, UniProt P10721, A829P); assay: KINOMEscan; format: binding; conditions: read-out: % Ctrl
# T16 construct: purchased DiscoveRx KINOMEscan
# [18] = target: T17, MRCKB (Homo sapiens, UniProt Q9Y5S2); assay: KINOMEscan; format: binding; conditions: read-out: % Ctrl
# T17 construct: purchased DiscoveRx KINOMEscan
# [19] = target: T18, MTOR (Homo sapiens, UniProt P42345); assay: KINOMEscan; format: binding; conditions: read-out: % Ctrl
# T18 construct: purchased DiscoveRx KINOMEscan
# [20] = target: T19, TIE1 (Homo sapiens, UniProt P35590); assay: KINOMEscan; format: binding; conditions: read-out: % Ctrl
# T19 construct: purchased DiscoveRx KINOMEscan
# [21] = target: T20, IKK-alpha (Homo sapiens, UniProt O15111); assay: KINOMEscan; format: binding; conditions: read-out: % Ctrl
# T20 construct: purchased DiscoveRx KINOMEscan
# [22] = target: T21, MRCKA (Homo sapiens, UniProt Q5VT25); assay: KINOMEscan; format: binding; conditions: read-out: % Ctrl
# T21 construct: purchased DiscoveRx KINOMEscan
# [23] = target: T22, ABL1(Y253F)-P (Homo sapiens, UniProt P00519, Y253F); assay: KINOMEscan; format: binding; conditions: read-out: % Ctrl
# T22 construct: purchased DiscoveRx KINOMEscan
# [24] = target: T23, PFTAIRE2 (Homo sapiens, UniProt Q96Q40); assay: KINOMEscan; format: binding; conditions: read-out: % Ctrl
# T23 construct: purchased DiscoveRx KINOMEscan
# [25] = target: T24, RSK3(KD2-C-t.) (Homo sapiens, UniProt Q15349); assay: KINOMEscan; format: binding; conditions: read-out: % Ctrl
# T24 construct: RSK3(KD2-C-t.); purchased DiscoveRx KINOMEscan
# T9 sequence (P16591 whole entry): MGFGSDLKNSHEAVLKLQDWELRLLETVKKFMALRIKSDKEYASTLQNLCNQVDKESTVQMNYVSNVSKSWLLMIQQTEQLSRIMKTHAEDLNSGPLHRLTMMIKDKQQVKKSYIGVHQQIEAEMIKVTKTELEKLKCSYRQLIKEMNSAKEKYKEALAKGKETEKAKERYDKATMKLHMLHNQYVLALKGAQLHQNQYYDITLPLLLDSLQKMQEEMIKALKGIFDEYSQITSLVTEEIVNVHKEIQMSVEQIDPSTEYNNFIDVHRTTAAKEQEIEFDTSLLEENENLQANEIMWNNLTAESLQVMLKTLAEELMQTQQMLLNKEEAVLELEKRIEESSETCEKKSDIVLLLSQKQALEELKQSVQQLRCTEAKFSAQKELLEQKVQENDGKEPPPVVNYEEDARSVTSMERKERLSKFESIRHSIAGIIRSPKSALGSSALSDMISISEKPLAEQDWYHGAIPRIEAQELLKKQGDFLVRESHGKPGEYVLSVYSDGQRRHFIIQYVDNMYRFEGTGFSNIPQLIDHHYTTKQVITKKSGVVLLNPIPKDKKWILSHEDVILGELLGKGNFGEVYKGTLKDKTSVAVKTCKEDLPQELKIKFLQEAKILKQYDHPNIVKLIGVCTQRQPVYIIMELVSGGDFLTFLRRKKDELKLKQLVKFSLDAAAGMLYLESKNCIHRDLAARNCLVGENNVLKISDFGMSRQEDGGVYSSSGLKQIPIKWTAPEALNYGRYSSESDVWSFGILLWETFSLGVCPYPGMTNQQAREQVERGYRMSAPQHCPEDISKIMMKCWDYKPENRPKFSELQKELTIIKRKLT
# T17 sequence (Q9Y5S2 whole entry): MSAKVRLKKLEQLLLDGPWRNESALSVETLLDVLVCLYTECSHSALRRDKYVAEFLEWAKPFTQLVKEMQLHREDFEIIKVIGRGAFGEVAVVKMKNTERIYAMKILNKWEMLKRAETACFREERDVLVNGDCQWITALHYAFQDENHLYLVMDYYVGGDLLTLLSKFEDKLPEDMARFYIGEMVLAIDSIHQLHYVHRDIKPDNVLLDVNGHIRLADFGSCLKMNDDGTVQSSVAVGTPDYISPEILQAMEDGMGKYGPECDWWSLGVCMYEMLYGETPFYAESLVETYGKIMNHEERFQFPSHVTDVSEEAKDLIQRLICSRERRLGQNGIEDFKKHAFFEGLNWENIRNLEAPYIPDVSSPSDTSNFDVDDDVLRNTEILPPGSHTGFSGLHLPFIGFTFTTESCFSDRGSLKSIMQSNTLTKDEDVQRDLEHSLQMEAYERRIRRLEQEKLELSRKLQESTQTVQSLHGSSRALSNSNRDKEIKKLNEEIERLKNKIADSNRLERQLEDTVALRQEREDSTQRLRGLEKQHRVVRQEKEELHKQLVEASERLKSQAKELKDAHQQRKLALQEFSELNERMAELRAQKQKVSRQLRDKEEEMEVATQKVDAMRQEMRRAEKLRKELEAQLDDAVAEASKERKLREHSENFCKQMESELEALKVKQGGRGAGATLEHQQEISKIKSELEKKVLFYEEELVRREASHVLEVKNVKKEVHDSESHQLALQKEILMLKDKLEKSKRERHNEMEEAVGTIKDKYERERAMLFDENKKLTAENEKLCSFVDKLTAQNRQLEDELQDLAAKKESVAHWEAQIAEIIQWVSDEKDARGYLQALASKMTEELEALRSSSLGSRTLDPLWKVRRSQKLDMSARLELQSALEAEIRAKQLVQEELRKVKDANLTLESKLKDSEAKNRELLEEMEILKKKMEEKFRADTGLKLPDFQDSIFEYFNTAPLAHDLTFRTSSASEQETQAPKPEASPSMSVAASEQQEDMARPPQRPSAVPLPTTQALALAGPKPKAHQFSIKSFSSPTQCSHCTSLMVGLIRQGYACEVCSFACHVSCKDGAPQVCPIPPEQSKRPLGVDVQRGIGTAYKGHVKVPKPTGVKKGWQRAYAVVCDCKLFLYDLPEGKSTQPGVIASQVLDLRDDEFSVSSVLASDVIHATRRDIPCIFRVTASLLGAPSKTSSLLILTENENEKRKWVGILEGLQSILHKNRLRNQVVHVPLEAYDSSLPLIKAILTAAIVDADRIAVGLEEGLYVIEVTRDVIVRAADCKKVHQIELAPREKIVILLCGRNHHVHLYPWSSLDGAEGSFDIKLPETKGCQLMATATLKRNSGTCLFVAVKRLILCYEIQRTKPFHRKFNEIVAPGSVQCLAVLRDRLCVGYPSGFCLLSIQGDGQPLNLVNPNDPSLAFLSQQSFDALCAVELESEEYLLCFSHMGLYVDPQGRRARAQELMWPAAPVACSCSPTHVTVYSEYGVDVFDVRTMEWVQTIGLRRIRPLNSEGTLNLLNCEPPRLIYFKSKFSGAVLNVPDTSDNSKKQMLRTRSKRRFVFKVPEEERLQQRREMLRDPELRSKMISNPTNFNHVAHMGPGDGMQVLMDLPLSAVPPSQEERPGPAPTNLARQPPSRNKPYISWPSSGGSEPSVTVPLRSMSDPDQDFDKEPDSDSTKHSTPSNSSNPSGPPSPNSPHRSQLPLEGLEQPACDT
# T12 sequence (Q9Y3S1 whole entry): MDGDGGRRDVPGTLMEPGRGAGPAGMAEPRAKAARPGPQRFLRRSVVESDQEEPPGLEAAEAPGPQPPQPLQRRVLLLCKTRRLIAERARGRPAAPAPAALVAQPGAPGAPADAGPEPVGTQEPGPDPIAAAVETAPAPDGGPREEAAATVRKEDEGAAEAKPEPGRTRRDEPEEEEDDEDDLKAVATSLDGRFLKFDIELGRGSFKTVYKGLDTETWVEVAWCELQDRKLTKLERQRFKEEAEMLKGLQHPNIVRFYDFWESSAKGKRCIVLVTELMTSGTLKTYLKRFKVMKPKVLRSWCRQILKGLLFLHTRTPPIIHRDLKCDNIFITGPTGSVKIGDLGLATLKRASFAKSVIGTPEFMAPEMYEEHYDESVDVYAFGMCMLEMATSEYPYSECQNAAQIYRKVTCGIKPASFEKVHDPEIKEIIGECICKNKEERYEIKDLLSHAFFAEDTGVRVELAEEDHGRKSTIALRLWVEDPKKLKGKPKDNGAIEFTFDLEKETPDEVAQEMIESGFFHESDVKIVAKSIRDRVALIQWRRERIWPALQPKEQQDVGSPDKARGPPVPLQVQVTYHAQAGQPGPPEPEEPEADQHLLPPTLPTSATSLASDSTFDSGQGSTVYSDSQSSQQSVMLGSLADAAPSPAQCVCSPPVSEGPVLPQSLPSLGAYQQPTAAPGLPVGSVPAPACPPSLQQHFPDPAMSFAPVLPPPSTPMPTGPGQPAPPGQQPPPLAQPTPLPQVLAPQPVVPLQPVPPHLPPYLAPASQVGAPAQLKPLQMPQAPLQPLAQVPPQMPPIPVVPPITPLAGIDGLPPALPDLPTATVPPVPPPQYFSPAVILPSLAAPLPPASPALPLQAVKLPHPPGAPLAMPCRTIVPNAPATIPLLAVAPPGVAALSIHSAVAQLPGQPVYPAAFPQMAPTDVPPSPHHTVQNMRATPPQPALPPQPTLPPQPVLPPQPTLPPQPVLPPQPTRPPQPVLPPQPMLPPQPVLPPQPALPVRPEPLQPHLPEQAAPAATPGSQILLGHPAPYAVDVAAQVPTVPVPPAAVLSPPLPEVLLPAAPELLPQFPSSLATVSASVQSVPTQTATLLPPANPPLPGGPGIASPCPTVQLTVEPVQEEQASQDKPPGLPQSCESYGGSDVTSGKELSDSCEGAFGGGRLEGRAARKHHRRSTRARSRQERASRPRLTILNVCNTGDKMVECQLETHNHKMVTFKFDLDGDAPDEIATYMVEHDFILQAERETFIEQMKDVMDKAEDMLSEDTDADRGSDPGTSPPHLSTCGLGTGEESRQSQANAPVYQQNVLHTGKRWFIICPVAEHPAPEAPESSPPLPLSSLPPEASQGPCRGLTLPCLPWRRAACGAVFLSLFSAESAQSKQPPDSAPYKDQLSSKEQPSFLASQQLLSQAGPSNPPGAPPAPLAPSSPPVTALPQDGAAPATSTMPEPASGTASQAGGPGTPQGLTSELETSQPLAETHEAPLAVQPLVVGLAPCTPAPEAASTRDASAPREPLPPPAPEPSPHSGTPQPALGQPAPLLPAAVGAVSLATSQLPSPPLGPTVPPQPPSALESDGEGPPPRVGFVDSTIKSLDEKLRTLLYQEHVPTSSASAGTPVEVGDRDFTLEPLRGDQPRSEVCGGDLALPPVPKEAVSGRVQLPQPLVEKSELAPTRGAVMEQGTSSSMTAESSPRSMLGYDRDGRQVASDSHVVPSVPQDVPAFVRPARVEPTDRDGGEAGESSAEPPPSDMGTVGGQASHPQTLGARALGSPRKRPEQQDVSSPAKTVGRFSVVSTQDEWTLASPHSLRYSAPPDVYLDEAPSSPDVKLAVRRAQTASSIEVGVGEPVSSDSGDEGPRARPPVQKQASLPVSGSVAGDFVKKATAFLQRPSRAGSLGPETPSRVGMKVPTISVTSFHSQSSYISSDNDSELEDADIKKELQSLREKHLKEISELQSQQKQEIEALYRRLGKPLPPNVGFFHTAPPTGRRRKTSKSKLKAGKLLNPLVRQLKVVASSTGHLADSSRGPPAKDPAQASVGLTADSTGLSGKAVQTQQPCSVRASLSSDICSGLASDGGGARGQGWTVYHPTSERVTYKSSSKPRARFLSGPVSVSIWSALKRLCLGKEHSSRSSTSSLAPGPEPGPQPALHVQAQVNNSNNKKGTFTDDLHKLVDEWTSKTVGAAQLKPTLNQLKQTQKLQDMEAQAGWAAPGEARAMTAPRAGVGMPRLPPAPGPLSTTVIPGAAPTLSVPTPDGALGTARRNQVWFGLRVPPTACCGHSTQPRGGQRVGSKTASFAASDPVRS
smiles,measurement,setting,value
COc1nc2ccc(NCC3CCN(C)CC3)nn2c1C(=O)Nc1cccc(OC(F)(F)F)c1 [Cpd 1],EC50,[1],~3.56 µM
CN1CCC(CNc2ccc3ncc(C(=O)Nc4cccc(OC(F)(F)F)c4)n3n2)CC1 [Cpd 2],remaining binding at 1 µM,[2],92%
same,remaining binding at 1 µM,[3],100%
same,remaining binding at 1 µM,[4],100%
same,remaining binding at 1 µM,[5],100%
same,remaining binding at 1 µM,[6],89%
same,remaining binding at 1 µM,[7],100%
same,remaining binding at 1 µM,[8],92%
same,remaining binding at 1 µM,[9],61%
same,remaining binding at 1 µM,[10],98%
same,remaining binding at 1 µM,[11],98%
same,remaining binding at 1 µM,[12],99%
same,remaining binding at 1 µM,[13],77%
same,remaining binding at 1 µM,[14],95%
same,remaining binding at 1 µM,[15],99%
same,remaining binding at 1 µM,[16],100%
same,remaining binding at 1 µM,[17],91%
same,remaining binding at 1 µM,[18],100%
same,remaining binding at 1 µM,[19],100%
same,remaining binding at 1 µM,[20],90%
same,remaining binding at 1 µM,[21],97%
same,remaining binding at 1 µM,[22],100%
same,remaining binding at 1 µM,[23],100%
same,remaining binding at 1 µM,[24],92%
same,remaining binding at 1 µM,[25],74%

# Reference: paper PMC7407272, “Induction of Lysosome Membrane Permeabilization as a Therapeutic Strategy to Target Pancreatic Cancer Stem Cells” (Cancers, 2020)
